# Laboratory results taken from US10960020B2, “Modulation of PCSK9 and LDLR through DRP1 inhibition” (THE BRIGHAM AND WOMEN'S HOSPITAL, INC., priority 2016, dated 2021).
# Tested on: PCSK9 secretion
# Assay: SILAC mass spectrometry of HepG2 secreted proteins: PCSK9
# Assay type: cell-based, human
# Details: HepG2, Mdivi-1 50 μM, 24 hours, vs vehicle
# Protocol: To assess DRP1 involvement in protein secretion, secretome changes were quantified using stable isotope labeling by amino acids in cell culture (SILAC).
# HepG2 cells were cultured on 100 mm dishes at a confluency of ˜60-70%. […] Media was prepared with DMEM (no lysine, no arginine; A14431-01, Thermo Fisher Scientific) to which L-glutamine (2 mM, Lonza, Walkersville, Md.), L-arginine HCl (0.17 mM; Sigma), either light L-lysine HCl (0.339 mM; Sigma) or heavy L-lysine 2HCl (0.339 mM; Cambridge Isotopes, Tewksbury, Mass.), 10% dialyzed FBS (Thermo Fisher Scientific), 1% pen/strep was added. Media was changed every two days, and cells were split as required. […]
# The peptide sample was diluted [1/10-fold] and analyzed with the high resolution/accuracy Q Exactive™ mass spectrometer fronted with a Nanospray™ FLEX ion source, and coupled to an Easy-nLC1000 HPLC pump (Thermo Fisher Scientific). […] The peptide false discovery rate (FDR) was calculated using Percolator™ provided by Proteome Discoverer. […] Quantification of SILAC peak pairs was also done in Proteome Discoverer™ using up to the top three most abundant peptides. […] Significant changes were determined as proteins with an average value (ratio of Mdivi-1 treated/vehicle treated peak intensity) plus two standard deviations being less than the control value (vehicle treated/vehicle treated peak intensity=1). […]
smiles,measurement,value
"COc1cc(-n2c(S)nc3ccccc3c2=O)c(Cl)cc1Cl [Mdivi-1, 3-(2,4-Dichloro-5-methoxyphenyl)-2,3-dihydro-2-thioxo-4(1H)-quinazolinone]",PCSK9 secretion reduction (SILAC),−74%
